Measurements published in patent US20240124510A1, “Cyclic Glycoaminoacid Derivatives” (TFCHEM, priority 2021, published 2024).
“And” between values parts separate entries of the source, which are not always exact repeats. Equal entries are not always repeated.

Legend:
[1] = test system: procollagen I; experiment: Extracellular secretion of procollagen I by preadipocytes in inflammatory condition (ELISA); type: cell-based, human; details: for Procollagen I secretion, Mean / Procollagen I secretion, Values: normalized by cells number (DAPI); for Procollagen I secretion, Values: individual values; for Procollagen I secretion compared to the AcMC control condition fixed at 100%: preadipocytes
Experimental: (§1) Preadipocytes have been isolated from human female hypodermis (body mass index <30 kg/m2 and <45 years old). Preadipocytes have been cultured for 24 h in 100 μl of DMEM-10% Fetal Bovine Serum (FBS) in 96-well plates. Then cells were treated to induce their differentiation in a classical or an inflammatory environment for 13 days.
(§2) To induce the preadipocytes differentiation cells were incubated in a proadipogenic cocktail (PAC) including insulin, glucocorticoid, 3-isobutyl-1-methylxanthine (IBMX), and thiazolinedione in DMEM.
(§3) To induce a fibro-inflammatory environment, cells were treated with an activated human macrophage-conditioned medium (AcMC) prepared in RPMI medium. A treatment with Dexamethasone (DXM) at 100 nM was used as anti-inflammatory response control. At D0: preadipocytes have been treated in the following conditions: • “Undifferentiation”: DMEM+¼ RPMI medium • “Differentiation”: PAC+¼ RPMI medium • “AcMC” i.e. inflammatory condition: PAC+¼ AcMC • “AcMC+DXM”: PAC+[…] AcMC+anti-inflammatory DXM at 100 nM • “AcMc+compounds”: PAC+14 AcMC+compounds to be tested
(§4) All conditions have been performed in triplicate. The medium has been changed every 2 days for 13 days.
At D14: during the last 24 h of culture, the medium has been replaced by DMEM/F12 medium in all conditions, to collect cells' secretions.
After 13 days, the 24 h culture media of the different conditions have been collected at the end of the treatment period. The concentrations of IL-6, procollagen I and MCP1 have been evaluated by ELISA assays using specific kits (for IL-6: DY206, DuoSet ELISA, R&D Systems; for Procollagen I: DY6220-05, DuoSet ELISA, R&D Systems; for MCP1: DY279-05 DuoSet ELISA, R&D Systems) according to the manufacture's recommendations. Values have been normalized to the cell number determined by DAPI staining.
Extracellular secretions of procollagen I by preadipocytes in inflammatory condition Quantity of procollagen secreted in medium was measured and normalized by cell number in each culture condition. Data are represented in percentage of proinflammatory control conditions (AcMC condition).

[2] = test system: Human dermal fibroblasts; experiment: Cytotoxicity (LDH release) on dermal fibroblasts in classical condition; type: cell-based; details: for Cytotoxicity (LDH release), Mean / Cytotoxicity (LDH release), Values: during 24 h after 11 days of culture, normalized by cell number; for Cytotoxicity (LDH release), Values: individual values
Experimental: Human dermal fibroblasts were isolated from skin tissue by dermis explants seeding in Petri dishes in DMEM-20% FBS for 3 weeks. Dermal fibroblasts were then seeded in 96-well plates and then incubated in different culture conditions described below.
Different culture conditions were realized in triplicate at least: • Positive control of cytotoxicity: cells in DMEM 1% FBS medium lysed by 0.2% triton at the end of the culture period • Control: cells in DMEM 1% FBS medium • Test: cells in DMEM 1% FBS medium added with test compound 6 and compound 44 of WO2015/140178.
Cytotoxicity was assessed by the measurement of the lactate dehydrogenase (LDH) released by damaged cells in the culture medium (using the kit CytoTox-One Non-Radioactive Cytotoxicity Assay, G1780, Promega). Cells were treated with 0.2% of triton at the end of the culture to determine the maximal toxicity response. […]
The results were normalized by cell number, determined by nuclei staining (with DAPI: 4′,6-Diamidino-2-Phenylindole, Dihydrochloride), and were represented in percentage of the lysis positive control. Compounds presenting a level of cytotoxicity below 20% compared to control were considered as non-toxic.
Quantity of LDH released by cells was normalized by cell number in each culture condition. Data are represented in percentage of the positive control.

[3] = test system: neonatal skin fibroblasts (CCD-27SK); experiment: Preservation/protection of neonatal skin fibroblasts under starvation conditions, neutral red uptake assay; type: cell-based, human; details: for Variation of viability (stressed cells treated with compound 6 vs stressed cells): 17 mM; for OD 540 nm - mean value (cell viability): starvation medium + 17 mM
Experimental: The neonatal skin fibroblasts (Cell line: CCD-27SK. ATCC number CRL-1475) were grown with DMEM medium supplemented with Fetal Bovine Serum 10% final, antibiotics (Penicillin/Streptomycin) 1% final and Amphotericin B 0.1% final. Fibroblasts were grown in 75 cm^2 culture flask to 80% confluence in 37° C. and 10% CO2 incubator. The medium was changed every two days by 37° C. preheated fresh medium.
This medium was composed of 45% subculturing medium without Fetal Bovine Serum mixed with 55% of Phosphate Buffer Saline IX containing EDTA (final concentration of 0.45 mM). This was referred to as serum-free medium or starvation medium.
Compound 6 (MM=356.3 g/mol) was diluted in starvation medium to 17 mM final and pH was adjusted at 7.4 by addition of NaOH 1N.
Fibroblast cells were concentrated to 2.10^5 cells/ml and 100 μl of cell suspension was added in wells of a 96-well plate and incubated in 37° C. and 10% CO2 incubator for 4 hours.
After cell adhesion the medium was changed and plates were incubated (37° C.-10% CO2) to perform the assay as follows: • One plate for each sampling times: D0, D4, D7 days; • Three wells for each condition (triplicate count) added with 120 μl of culture medium (surviving control), starvation medium (serum-free control) or compound 6 solution at 17 mM.
The neutral red uptake assay was used for the determination of cell viability. This assay is based on the ability of viable cells to incorporate and bind the supravital dye neutral red in its lysosomes. Thus, only the viable cells are dyed. At D4 and D7, the plates were incubated with neutral red solution for 3.5 hours. The cells are subsequently washed, the dye is extracted in each well and the absorbance is read using a spectrophotometer.
For sampling, 1 mL of DMEM (without phenol red indicator) with neutral red (OD=0.110) was added to the cells for 3.5 hours (37° C. 10% CO2). After incubation. the medium was removed. Two washes with PBS were realized and 1 mL of extraction solution (absolute ethanol 49%, ultrapure water 49%, glacial acetic acid 2%) was added. Plates were placed 15 minutes on rotary shaker in the dark before reading OD at 540 nm.
The OD540 nm average values were compared and the variation of viability was calculated as follows:
Variation of viability at Dx=(OD540 nm of tested solution−blank) at Dx/(OD540 nm of stress control−blank) at Dx.

[4] = test system: human preadipocytes; experiment: Lipid index (AdipoRed area*intensity, imaging) in preadipocytes in inflammatory condition; type: cell-based; details: for Lipid Index (Adipored area * intensity), Mean / Lipid Index (Adipored area * intensity), Values: normalized by cells number (DAPI); for Lipid Index (Adipored area * intensity), Values: individual values
Experimental: as §1, §2, §3, §4
A second analysis of lipid accumulation was performed with an imaging acquisition and quantification. The area and the intensity of the lipid droplets were evaluated and quantified for more accurate data. An index was calculated (area*intensity of the AdipoRed staining) and normalized by cells number.
Lipid accumulation and Lipid index were evaluated for each condition. Data are represented in percentage of proinflammatory control condition (AcMC condition).

Compound: N[C@H]1CCCN(CC(F)(F)[C@]2(O)O[C@H](CO)[C@H](O)[C@H](O)[C@H]2O)C1=O [Compound 6]
- Procollagen I secretion, Mean ([1]; AcMC + 1 mg/ml): 49.9 % of AcMC condition
- Procollagen I secretion, Values ([1]; AcMC + 1 mg/ml): 39.3 % of AcMC condition and 57.7 % of AcMC condition and 52.7 % of AcMC condition
- Procollagen I secretion, Mean ([1]; AcMC + 2 mg/ml): 46.2 % of AcMC condition
- Procollagen I secretion, Values ([1]; AcMC + 2 mg/ml): 47.0 % of AcMC condition and 40.2 % of AcMC condition and 51.2 % of AcMC condition
- Procollagen I secretion compared to the AcMC control condition fixed at 100% ([1]; 1 mg/ml): 49.9%
- Procollagen I secretion compared to the AcMC control condition fixed at 100% ([1]; 2 mg/ml): 46.2%
- Cytotoxicity (LDH release), Mean ([2]; 0.1 mg/ml): 6.7 percentage of positive control
- Cytotoxicity (LDH release), Values ([2]; 0.1 mg/ml): 5.9 percentage of positive control and 4.8 percentage of positive control and 6.5 percentage of positive control and 9.8 percentage of positive control
- Cytotoxicity (LDH release), Mean ([2]; 0.5 mg/ml): 5.6 percentage of positive control
- Cytotoxicity (LDH release), Values ([2]; 0.5 mg/ml): 7.1 percentage of positive control and 6.6 percentage of positive control and 3.1 percentage of positive control and 5.7 percentage of positive control
- Toxicity on dermal fibroblasts ([2]; 2 mg/ml, 0.5 mg/ml and 0.1 mg/ml): No toxicity
- Cytotoxicity (LDH release), Mean ([2]; 2 mg/ml): 5.1 percentage of positive control
- Cytotoxicity (LDH release), Values ([2]; 2 mg/ml): 4.2 percentage of positive control and 5.1 percentage of positive control and 5.3 percentage of positive control and 6.0 percentage of positive control
- Protective effect on dermal fibroblasts under classical condition ([2]; all concentrations): strong protective effect
- Variation of viability (stressed cells treated with compound 6 vs stressed cells) ([3]; D 4): 2.3 and 2.32
- OD 540 nm - mean value (cell viability) ([3]; D 4): 0.274
- Variation of viability (stressed cells treated with compound 6 vs stressed cells) ([3]; D 7): 3.4 and 3.39
- OD 540 nm - mean value (cell viability) ([3]; D 7): 0.224
- Lipid Index (Adipored area * intensity), Mean ([4]; AcMC + 1 mg/ml): 158.6 % of AcMC condition
- Lipid Index (Adipored area * intensity), Values ([4]; AcMC + 1 mg/ml): 150.8 % of AcMC condition and 156.6 % of AcMC condition and 168.4 % of AcMC condition
- Lipid Index (Adipored area * intensity), Mean ([4]; AcMC + 2 mg/ml): 297.9 % of AcMC condition
- Lipid Index (Adipored area * intensity), Values ([4]; AcMC + 2 mg/ml): 286.0 % of AcMC condition and 338.7 % of AcMC condition and 269.0 % of AcMC condition
- Lipid index compared to AcMC control ([4]; both concentration, inflammatory media): increased
